According to patent publication EP0345931A1 (SCHERING CORPORATION, priority 1988, dated 1989):
Where two headings read alike, the source gives them in different places.

Tests used:
PAF-induced lethality = PAF-induced lethality in mice; type: in vivo, Swiss-Webster female CFW mice; conditions: for ED50: Mus musculus, read-out: ED₅₀; for % Lethality: death recorded 1 hour after challenge; for effect on PAF-induced mortality: result in words
Protocol: Swiss-Webster female CFW mice (from Charles River), 5-10 per group, were injected through the tail vein with PAF in 0.5 ml of saline containing bovine serum albumin, and death was recorded.

[1] = tested on: ovalbumin-induced lethality (anaphylactic death); assay: Anaphylactic death in ovalbumin-sensitized mice; type: in vivo, Swiss-Weber female CFW mice; conditions: for protecting sensitized animals from death: i.p. at doses as high as 50 mg/kg (A) and 20 mg/kg (B); for protecting sensitized animals from death / protection of sensitized animals from death / protection against allergic death (anaphylactic shock) / ovalbumin-induced lethality: result in words; for protection of sensitized animals from death: antihistamines given individually; for protection against allergic death (anaphylactic shock) / ovalbumin-induced lethality: ovalbumin sensitized mice
Protocol: Swiss-Weber female CFW mice (20-30 g) from Charles River were acclimatized for 7-14 days. Animals were sensitized by injecting intraperitoneally 0.5 ml of saline containing 1.6 mg of ovalbumin adsorbed to 100 mg of Al(OH)₃ gel. Ten to 15 days after sensitization, the animals, at least six per group, were injected intraveneously through the tail vein with 1.6 mg of ovalbumin in 0.5 ml of saline. One hundred percent of the sensitized animals died within 10-20 minutes. Injection of ovalbumin into normal mice caused no lethality. […] The compositions (given in dosages listed in the left-hand column of Table II below) were administered intraperitoneally either individually or in indicated combinations 30 minutes before challenge with albumin to sensitized mice. Death was recorded 1 hour after the challenge.

PAF-induced bronchospasm = PAF-induced bronchospasm in guinea pigs; type: in vivo; conditions: Cavia porcellus
PAF-acether = conditions: BN 52021 2 mg/kg p.o. alone (non-active dose); cited from earlier work
[2] = compound 5 mg/kg i.p. 30 minutes before i.v. PAF (200 µg/kg)
[3] = compound 10 mg/kg i.p. 30 minutes before i.v. PAF (200 µg/kg)

Compound: COc1cc([C@H]2CC[C@H](c3cc(OC)c(OC)c(OC)c3)O2)cc(OC)c1OC (relative stereo) [A, trans-2,5-bis(3,4,5-trimethoxyphenyl)tetrahydrofuran]
- ED50 (PAF-induced lethality): 20 mg/kg
- % Lethality (PAF-induced lethality; [2]): 84%
- % Lethality (PAF-induced lethality; [3]): 72%
- % Lethality (PAF-induced lethality; compound 25 mg/kg i.p. 30 minutes before i.v. PAF (200 µg/kg)): 25%
- % Lethality (PAF-induced lethality; compound 50 mg/kg i.p. 30 minutes before i.v. PAF (200 µg/kg)): 16%
- % Survival ([1]; A 50 mg/kg i.p. 30 minutes before ovalbumin challenge, death recorded 1 hour after, pooled data from five experiments): 0%
- protecting sensitized animals from death [1]: totally ineffective
- ED50 (PAF-induced bronchospasm; iv, read-out: ED₅₀'s (i.v.)): 0.4 mg/kg

Compound: Cc1nnc2n1-c1sc(CCC(=O)N3CCOCC3)cc1C(c1ccccc1Cl)=NC2 [B, 4-(2-chlorophenyl)-9-methyl-6H-thieno[3,2-f][1,2,4]triazolo[4,3-a][1,4]diazepine-2-propionic acid morpholide]
- ED50 (PAF-induced lethality): 1.5 mg/kg
- % Lethality (PAF-induced lethality; compound 1 mg/kg i.p. 30 minutes before i.v. PAF (200 µg/kg)): 84%
- % Lethality (PAF-induced lethality; compound 2 mg/kg i.p. 30 minutes before i.v. PAF (200 µg/kg)): 20%
- % Lethality (PAF-induced lethality; [2]): 16%
- % Lethality (PAF-induced lethality; [3]): 0%
- % Survival ([1]; B 5 mg/kg i.p. 30 minutes before ovalbumin challenge, death recorded 1 hour after, pooled data from five experiments): 0%
- protecting sensitized animals from death [1]: totally ineffective
- ED50 (PAF-induced bronchospasm; po, PAF-induced bronchospasm, read-out: ED₅₀ (p.o.)): 0.1 mg/kg

Compound: C[C@@H]1C(=O)O[C@H]2[C@@H](O)[C@@]34[C@H]5C[C@@H](C(C)(C)C)[C@]36[C@@H](OC(=O)[C@@H]6O)O[C@@]4(C(=O)O5)[C@@]12O [BN 52021, ginkgolide B]
- change of bronchospasm (PAF-acether): -10%

Compound: CN1CCC(=C2c3ccccc3CC(=O)c3sccc32)CC1 [D, ketotifen]
- % Lethality (PAF-induced lethality; compound 1.4 mg/kg i.p. 30 minutes before i.v. PAF (200 µg/kg)): 100%
- effect on PAF-induced mortality (PAF-induced lethality): Neither chlorpheniramine, clemastine nor ketotifen affected PAF-induced mortality
- % Survival ([1]; D 0.1 mg/kg i.p. 30 minutes before ovalbumin challenge, pooled data): 40%
- protection of sensitized animals from death [1]: significant protection
- protection against allergic death (anaphylactic shock) / ovalbumin-induced lethality [1]: only partial protection

Compound: CN1CCC[C@@H]1CCO[C@](C)(c1ccccc1)c1ccc(Cl)cc1 [E, clemastine]
- effect on PAF-induced mortality (PAF-induced lethality): Neither chlorpheniramine, clemastine nor ketotifen affected PAF-induced mortality
- % Survival ([1]; E 0.2 mg/kg i.p. 30 minutes before ovalbumin challenge, pooled data): 45%
- protection of sensitized animals from death [1]: significant protection
- protection against allergic death (anaphylactic shock) / ovalbumin-induced lethality [1]: only partial protection

Compound: Cc1nnc2n1-c1ccc(Cl)cc1C(c1ccccc1)=NC2 [alprazolam, 8-chloro-1-methyl-6-phenyl-4H-3-triazolo[4,3-a][1,2]-benzodiazepine]
- ED50 (PAF-induced bronchospasm; iv, read-out: ED₅₀'s (i.v.)): 3 mg/kg
